Measured values taken from patent US20230139445A1, “BACTERIAL CELLS WITH IMPROVED TOLERANCE TO DIACIDS” (priority 2016, published 2023).
Where “and” joins values, the source holds several entries; their conditions need not be identical. Equal entries are not always repeated.

Legend:
[1] = tested on: Escherichia coli K-12 MG1655; test: Screening for tolerance in wild-type cells: growth in varying concentrations of neutralized diacid, Biolector; type: cell-based; conditions: for tlag (lag time), mean / μ (growth rate), mean: neutralized with sodium hydroxide; for maximum measured concentration at which exponentially growing K-12 MG1655 can grow: neutralized diacid in M9+1% glucose
Description: Escherichia coli K-12 MG1655 was grown overnight in M9 minimal medium+1% glucose and subcultured the following morning to an initial OD600 of 0.05 in M9+1% glucose. Cells were grown to mid-exponential phase (OD600 0.7-1.0) and were back-diluted with fresh medium to an OD600 of 0.7. The diluted cells were used to inoculate M9+1% glucose containing varying concentrations of glutaric acid or adipic acid which were neutralized to pH 7.0 with sodium hydroxide, and growth was measured in FlowerPlates in a Biolector microbioreactor system (m2p-labs) at 37° C. with 1000 rpm shaking. The culture volume in each well was 1.4 mL.

[2] = tested on: Escherichia coli K-12 MG1655 knockout mutants; test: Growth Profiler growth screening of K-12 MG1655 single, double and triple knockout mutants in glutaric or adipic acid; type: cell-based
Description: Five colonies from wild-type K-12 MG1655 and 10 individual colonies deriving from each population were inoculated into 300 μL M9+1% glucose in 96 well deepwell plates and incubated in a 300 rpm plate shaker at 37° C. The next day, cells were diluted 10× in M9+1% glucose and 30 μL was transferred into clear-bottomed 96 well half-deepwell plates (with rectangular wells) containing M9+1% glucose and M9+1% glucose+52.78 g/L glutaric acid or 55.56 g/L adipic acid, such that the final concentration of glutaric acid or adipic acid was 47.5 g/L or 50 g/L, respectively. In addition, cryogenic glycerol stocks of the overnight culture were saved in a 96 well plate format. Half deepwell plates were incubated at 37° C. with 225 rpm shaking in a Growth Profiler (Enzyscreen), with optical scans of the plates taken at 15 minute intervals. Green pixel values integrated over a 1 mm diameter circular area in each well were converted to OD600 values using a previously determined calibration between OD600 and green pixel values. […] In general, it was attempted to select three isolates per population for further analysis, and all populations were represented in the resequenced isolates.
Selected isolates from the primary screen were restruck onto LB agar from the cryogenic stock made from the overnight culture plate for the primary screen. Five K-12 MG1655 colonies and three individual colonies from each isolate were inoculated as biological replicates into a new 96 well deepwell plate containing 300 μL of M9+1% glucose, and grown overnight as for the primary screen. The next day, a cryogenic stock and half deepwell plates containing M9+1% glucose with or without glutaric acid or adipic acid were inoculated using the plate of overnight cultures, and growth was measured as described for the primary screen.
Probable important losses-of-function were determined by identifying genes across all isolates that harboured mutations, especially those occurring in multiple populations, and by the presence of at least one mutation that either generated a premature stop codon, a frameshift mutation, or the presence of an insertion element sequence within the gene. For those genes, the corresponding knockout strain from the Keio collection of single knockout mutants (where each gene is replaced with a cassette consisting of a kanamycin resistance gene flanked by FRT sites) was used as a donor strain for P1vir phage transduction. Briefly, the Keio strain was grown to early exponential phase in LB+5 mM CaCl2 and 80 μL of a P1vir stock raised on K-12 MG1655 was added. After significant lysis was observed after 1.5 to 2 hours, the lysate was filter-sterilized to remove cells and stored at 4° C. Strain K-12 MG1655 was grown overnight in LB+5 mM CaCl2) and 100 μL of the overnight culture was mixed with 100 μL of the P1vir lysate of the Keio collection mutant, and the mixture was incubated at 37° C. without shaking for 20 minutes. The entire mixture was then plated on LB agar containing 1.25 mM sodium pyrophosphate as a chelating agent and 25 μg/mL kanamycin. One colony was then restruck on LB+1.25 mM […]+25 μg/mL kanamycin plate and analyzed for presence of the Keio cassette in place of the wild-type gene by colony PCR. When further knockouts were constructed in the same strain, the Keio cassette was flipped out to generate a scar sequence such that Kan^R marker could be recycled. […]

[3] = strain MG1655 ΔkgtP proV::kan, M9 + 50 g/L adipate (neutralized)

Row | SMILES | tlag (lag time), mean ([1]; 10 g/L) [h] | μ (growth rate), mean ([1]; 10 g/L, M9+1% glucose, 37° C) [h⁻¹] | tlag (lag time), mean ([1]; 20 g/L) [h] | μ (growth rate), mean ([1]; 20 g/L) [h⁻¹] | tlag (lag time), mean ([1]; 30 g/L) [h] | μ (growth rate), mean ([1]; 30 g/L) [h⁻¹] | tlag (lag time), mean ([1]; 40 g/L) [h] | μ (growth rate), mean ([1]; 40 g/L) [h⁻¹] | tlag (lag time), mean ([1]; 50 g/L) [h] | μ (growth rate), mean ([1]; 50 g/L) [h⁻¹] | tlag (lag time), mean ([1]; 75 g/L) | μ (growth rate), mean ([1]; 75 g/L) [h⁻¹] | μ (growth rate), mean ([1]; 100 g/L) [h⁻¹] | maximum measured concentration at which exponentially growing K-12 MG1655 can grow [1] [g/L] | mean growth rate μ [2, 3] [h⁻¹] | mean lag time tlag [2, 3] [h] | mean growth rate μ ([2]; strain MG1655 ΔkgtP sspA::kan, M9 + 50 g/L adipate (neutralized)) [h⁻¹] | mean lag time tlag ([2]; strain MG1655 ΔkgtP proV::kan, M9 + 47.5 g/L glutarate (neutralized)) [h] | mean growth rate μ ([2]; strain MG1655 ΔkgtP sspA::kan, M9 + 47.5 g/L glutarate (neutralized)) [h⁻¹]
1 | O=C(O)CCCCC(=O)O [adipic acid] | 1.0 | 0.575 | 1.3 | 0.494 | 1.8 | 0.367 | 4.0 | 0.263 | 2.4 | 0.120 | 27 h and 27.2 h | 0.203 | 0.000 | 75 | 0.264 | 16.5 | 0.117 |  | 
2 | O=C(O)CCCC(=O)O [glutaric acid] | 2.0 | 0.526 | 1.9 | 0.377 | 0.6 | 0.234 | 0.7 | 0.132 | 15.9 | 0.096 |  | 0.000 |  | 50 |  |  |  | 13.0 | 0.225
